As a reminder, the Ki is the dissociation constant of the complex between target and ligand, obtained from inhibition or displacement. Low readings indicate higher affinity, high ones lower affinity.

The results in this text go back to ChEMBL document CHEMBL1135367, “Evaluation of isotryptamine derivatives at 5-HT(2) serotonin receptors” (Bioorg Med Chem Lett, 2002).

The target of test [1] is T1, 5-hydroxytryptamine receptor 2C (Homo sapiens, UniProt P28335).
T1 sequence (P28335 whole entry): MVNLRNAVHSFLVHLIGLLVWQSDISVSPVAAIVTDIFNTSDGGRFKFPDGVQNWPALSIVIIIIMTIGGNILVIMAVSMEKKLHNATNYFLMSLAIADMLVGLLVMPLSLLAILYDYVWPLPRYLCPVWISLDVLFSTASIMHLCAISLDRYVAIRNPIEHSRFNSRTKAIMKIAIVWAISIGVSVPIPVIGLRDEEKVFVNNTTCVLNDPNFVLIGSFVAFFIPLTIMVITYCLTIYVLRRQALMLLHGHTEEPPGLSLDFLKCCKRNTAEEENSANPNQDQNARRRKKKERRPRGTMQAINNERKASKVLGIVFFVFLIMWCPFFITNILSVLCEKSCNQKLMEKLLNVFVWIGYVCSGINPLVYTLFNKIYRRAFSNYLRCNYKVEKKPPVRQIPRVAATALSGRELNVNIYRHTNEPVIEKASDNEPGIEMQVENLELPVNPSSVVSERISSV
In words: Binding affinity towards human 5-hydroxytryptamine 2C receptor.

The target of test [2] is T2, 5-hydroxytryptamine receptor 2A (Homo sapiens, UniProt P28223). In words: Displacement of [3H]DOB from human 5-hydroxytryptamine 2A receptor. (In a radioligand displacement assay an active substance lowers the binding of a labelled ligand.)
Test [3] has as its target T2, 5-hydroxytryptamine receptor 2A. In words: Displacement of [3H]ketanserin from human 5-hydroxytryptamine 2A receptor.
The target in test [4] is Serotonin 2 receptors; 5-HT2a & 5-HT2c (Homo sapiens) (UniProt P28223+P28335). The experiment in a line: Relative affinity for human 5-HT2C and 5-HT2A receptors. Format: protein assay.
For test [5], the target named is T2, 5-hydroxytryptamine receptor 2A. The experiment in a line: Tested for binding affinity towards 5-hydroxytryptamine 2A receptor.
Test [6] concerns the target T1, 5-hydroxytryptamine receptor 2C. The experiment in a line: Tested for binding affinity towards 5-HT2c receptor.
Test [7] has the same target. In words: Tested for binding affinity towards human 5-hydroxytryptamine 2C receptor using [3H]DOB as radioligand.
For test [8] the target is unchanged. The experiment in a line: Tested for binding affinity towards human 5-hydroxytryptamine 2C receptor using [3H]5-HT as radioligand.
The target of test [9] is T2, 5-hydroxytryptamine receptor 2A. In words: Tested for binding affinity towards human 5-hydroxytryptamine 2A receptor using [3H]5-HT as radioligand.
For test [10] the target is unchanged. The experiment in a line: Tested for binding affinity towards human 5-hydroxytryptamine 2A receptor using [3H]DOB as radioligand.
The target in test [11] is T3, 5-hydroxytryptamine receptor 2A (Rattus norvegicus, UniProt P14842). The experiment in a line: Tested for binding affinity towards rat 5-hydroxytryptamine 2A receptor using [3H]DOB as radioligand.
Test [12] deals with T3, 5-hydroxytryptamine receptor 2A. The experiment in a line: Tested for binding affinity towards rat 5-hydroxytryptamine 2A receptor using [3H]ketanserin as radioligand.
Test [13] concerns the target T1, 5-hydroxytryptamine receptor 2C. The experiment in a line: Tested for binding affinity towards human 5-hydroxytryptamine 2C receptor using [3H]mesulergine as radioligand.

Sequence of Serotonin 2 receptors; 5-HT2a & 5-HT2c (Homo sapiens) (P28223 whole entry, looked up, one chain of several): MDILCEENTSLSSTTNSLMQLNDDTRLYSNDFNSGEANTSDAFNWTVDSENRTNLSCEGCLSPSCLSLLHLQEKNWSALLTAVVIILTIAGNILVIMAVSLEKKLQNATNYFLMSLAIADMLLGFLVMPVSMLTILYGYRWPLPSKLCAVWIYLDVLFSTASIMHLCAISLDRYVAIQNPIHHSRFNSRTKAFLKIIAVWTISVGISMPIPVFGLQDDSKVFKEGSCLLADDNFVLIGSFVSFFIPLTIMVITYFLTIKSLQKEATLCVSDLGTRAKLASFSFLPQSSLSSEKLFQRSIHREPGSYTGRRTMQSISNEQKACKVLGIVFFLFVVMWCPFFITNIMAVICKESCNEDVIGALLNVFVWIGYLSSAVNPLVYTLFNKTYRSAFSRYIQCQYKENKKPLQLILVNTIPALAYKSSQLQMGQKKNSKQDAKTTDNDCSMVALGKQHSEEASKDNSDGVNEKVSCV
T2 sequence (P28223 whole entry): as the sequence (P28223 whole entry, looked up, one chain of several) above
T3 sequence (P14842 whole entry): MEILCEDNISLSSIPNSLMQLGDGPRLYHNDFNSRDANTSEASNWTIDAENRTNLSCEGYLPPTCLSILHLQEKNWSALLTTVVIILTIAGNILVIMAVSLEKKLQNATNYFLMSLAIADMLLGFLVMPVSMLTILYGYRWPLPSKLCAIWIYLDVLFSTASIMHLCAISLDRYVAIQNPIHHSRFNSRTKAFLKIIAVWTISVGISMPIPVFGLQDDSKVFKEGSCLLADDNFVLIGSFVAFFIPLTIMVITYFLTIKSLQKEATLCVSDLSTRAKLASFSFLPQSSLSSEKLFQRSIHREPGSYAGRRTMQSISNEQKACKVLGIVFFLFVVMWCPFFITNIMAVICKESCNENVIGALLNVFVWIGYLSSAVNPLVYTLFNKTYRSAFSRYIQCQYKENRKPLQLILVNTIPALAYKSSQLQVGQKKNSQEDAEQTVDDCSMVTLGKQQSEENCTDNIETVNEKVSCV

`Clc1ccc2cc3n(c2c1)CCNC3`: the results for the Ki in [1], in test [2] and in test [3] were 0.56 µM, 0.08 µM and 0.058 µM, respectively. In test [4], this compound returned a Selectivity of 7.
As for `c1ccc2c(c1)cc1n2CCNC1`, the Ki in test [1] is 4.78 µM; in test [2] it was 0.635 µM; in test [3] it was 1.04 µM. In test [4], this compound registered a Selectivity of 7.5.
`CN(C)CCn1ccc2cc(F)c(F)cc21`: the Ki in test [1] was found to be 0.3 µM; in test [2], 0.23 µM; in test [3] it was 0.64 µM. This compound displayed a Selectivity in [4] of 1.3.
Consider `CC(N)Cc1c[nH]c2ccc3ccccc3c12` (stereo not given), for which the Ki stood at 0.009 µM in [1] and 0.003 µM in test [5].
With `Clc1cccc2cc3n(c12)CCNC3`, the Ki turned out to be 0.52 µM in test [1], 0.33 µM in test [2] and 0.63 µM in test [3]. Further, the Selectivity in test [4] came out at 1.6.
Turning to `Clc1ccc2c(c1)cc1n2CCNC1`, the Ki in test [1] is 1.46 µM; in test [2], 0.32 µM; in [3], 1.67 µM. The Selectivity in test [4] worked out at 4.6.
Regarding `Cc1c2n(c3ccc(Cl)cc13)CCNC2`, the values for the Ki in test [3] and in test [6] were 1.25 µM and 0.45 µM, respectively.
Take `CC(N)Cn1ccc2ccc3ccccc3c21` (stereo not given): the results for the Ki in test [1] and in [5] were 0.042 µM and 0.038 µM, respectively.
As for `CC(CN)n1ccc2ccc3ccccc3c21` (stereo not given), the Ki is greater than 10 µM in test [1] and 4.3 µM in test [5].
With `COc1ccc2cc3n(c2c1)CCNC3`, the Ki is 5.16 µM in test [1], 1.3 µM in test [2] and 5.19 µM in test [3]. Besides, the Selectivity in test [4] turned out to be 4.
Consider `COc1ccc2c(c1)cc1n2CCNC1`, for which the Ki in test [1] amounted to 9.93 µM; in test [2] it was 0.93 µM; in [3] it was 5.83 µM. In addition, in test [4], the Selectivity is 10.7.
On to `c1ccc2c(c1)nc1n2CCNC1`, for which the Ki in test [1], in test [2] and in test [3] was greater than 10 µM in each case.
`COc1c2n(c3ccc(Cl)cc13)CCNC2`: the Ki came to 0.33 µM in test [1], 0.06 µM in test [2] and 0.13 µM in [3]. Besides, in [4], the Selectivity was 5.5.
With `COc1ccc2c(ccn2CCN(C)C)c1`, the Ki in [1], in [2] and in test [3] was greater than 10 µM in each case.
On to `C[C@H](N)Cn1ccc2cc(F)c(F)cc21`, for which the Ki in [1] was found to be 0.085 µM; in test [7], 0.0039 µM; in test [8], 0.0038 µM; in [9], 0.012 µM; in [10], 0.039 µM; in test [11], 0.015 µM. For the same compound, the values for the Ki in [12] and in test [13] were 0.32 µM and 0.085 µM, respectively. Moreover, the Selectivity in [4] turned out to be 5.7.
As for `COc1ccc2ccn(CCN(C)C)c2c1`, the Ki in test [1] was 0.49 µM; in [3], 1.04 µM.
On to `CN(C)CCn1ccc2ccccc21`, for which the Ki in [1] was found to be 0.72 µM; in test [2] it was 0.65 µM; in test [3], 0.6 µM. For the same compound, the Selectivity in [4] was determined as 1.1.
In the case of `COc1cccc2cc3n(c12)CCNC3`, the figures for the Ki in test [1], in test [2] and in test [3] were 1.99 µM, 0.3 µM and 1 µM, respectively. In addition, in [4], the Selectivity is 6.6.
